For one assay, the system named is recombinant Lmo2812. Briefly: Enzymatic activity assay with natural muropeptides. The note with it: for M4 (%) / M5 (%): 120 min at 37°C, HPLC. It counts as biochemical, Listeria monocytogenes. As to the method:
No such cleavage occurred in the absence of Lmo2812.
The pH-dependence of the activity of Lmo2812 against monomeric muropepeptide M5 was determined in the pH range of 4.5 to 7.0. The highest activity was detected in assays performed at pH 7.0 in a Tris-Mg buffer, where half of the substrate was converted to the tetrapeptide (Table 3).
Whole total peptidoglycan and purified muropeptides were isolated from E. coli cells as described previously. A 10 μg sample of recombinant Lmo2812 was mixed with 5 μg of M5 (NAcGlc-NAcMur-pentapeptide) or D45 (NAcGlc-NAcMur-tetrapeptide-NAcGlc-NAcMur-pentapeptide) in a volume of 30 μl using three different buffer conditions: pH 4.5 (50 mM NaPi, 1% methanol, pH 4.5), pH 7.0 (30 mM Tris-HCl, 3 mM MgCl2, pH 7.0), or NaPi (50 mM sodium phosphate buffer, pH 7.0). These mixtures were incubated at 37°C for 120 min. Control samples of M5 or D45 without Lmo2812 were similarly incubated in 30 mM Tris-HCl buffer, 3 mM MgCl2, pH 7.0. The samples were analyzed by HPLC using a C18 reversed phase column and a methanol gradient to separate the peaks.

Assay [1] relates to L. monocytogenes KD2812 (Δlmo2812). Briefly: Microdilution MIC test. It counts as cell-based, Listeria monocytogenes. As to the method:
(§1) To determine the effect of these mutations on cell morphology, the strains EGD, KD2812 and DA07 were analyzed by scanning electron microscopy (SEM). […] At 30°C the average cell length compared to strain EGD was increased by 38.5% in strain KD2812 and by 44.8% in the double mutant strain. The respective values at 37°C were 37.5% and 43%. […] The variant cells were characteristically curved with a bend at either one or both ends and subterminal constrictions. The number of cells with altered morphology was increased as the growth temperature was raised (Figure 3; b, e, h). Cell bending was more pronounced in the population of AD07 mutant cells (Figure 3; c, f, i). […] Similar results were found for a mutant of L. monocytogenes lacking PBP5 (PBPD1) examined in a previous study.
(§2) Microdilution tests were performed using cation-adjusted Mueller-Hinton broth (CAMHB) supplemented with 5% lysed horse blood containing two-fold dilutions of the antimicrobial agents. These mixtures were dispensed in 100 μl aliquots into plastic 96-well plates. To prepare inocula, a single colony of each strain from a TSBYE plate was transferred into 10 ml of the same medium and incubated for 24 h at 37°C. These cultures were serially diluted in CAMHB to a concentration of 10^5 cfu/ml and 100 μl aliquots were added to the microdilution plates. The plates were incubated for 18-20 h at 37°C before the reading of the MIC endpoints. The MIC was the lowest antibiotic concentration at which visible growth was inhibited.
A general note: In broth dilution the organism is exposed to a series of concentrations in liquid medium.

The subject of the next assay is L. monocytogenes EGD. Briefly: Microdilution MIC test. It counts as cell-based, Listeria monocytogenes. The protocol:
as §1, §2

Assay [2] concerns L. monocytogenes AD07 (Δlmo2812 Δlmo2754). Briefly: Microdilution MIC test. It counts as cell-based, Listeria monocytogenes. As to the method: as §1, §2
Assay [3] deals with purified recombinant Lmo2812 (PBPD2) (Listeria monocytogenes, UniProt Q8Y3M3). Briefly: Fluorescent antibiotic binding assay, purified recombinant protein. The settings on record: purified recombinant Lmo2812; antibiotic concentration for 50% of maximum binding; read-out: apparent affinity constant (Kd50). As to the method:
The purified protein was incubated with different concentrations of Boc-FL (0.25, 0.5, 2.5, 5 and 10 μM). […] Lmo2812 was the major band on gels, with a slower migrating minor band thought to represent a dimeric form (Figure 2).
Figure 2 Purified recombinant L. monocytogenes Lmo2812 (PBPD2) identified with Boc-FL. Samples of purified recombinant Lmo2812 (10 μg) were labeled with Boc-FL at concentrations of 0 (1), 0.25 (2), 0.5 (3), 2.5 (4), 5 (5) and 10 μM (6). Labeled bands were detected directly on the gel, quantified and their molecular mass estimated. The affinity of the bands for Boc-FL (Kd50) was estimated from their fluorescence as a function of the concentration of Boc-FL. The names of the bands are indicated on the right, and the positions of the molecular weight markers are shown on the left.
The β-lactam binding capacity of Lmo2812 was evaluated with three different fluorescent antibiotics: Boc-FL, Boc-650 and Amp-430.
Total whole cell proteins or purified recombinant protein resuspended in 50 mM NaPi buffer, pH 7.0 were labeled by incubation at 37°C for 30 min with different concentrations of Boc-FL (Molecular Probes), Boc-650 (Molecular Probes) or Amp-430 (prepared in the laboratory by coupling ampicillin to Alexa-430), and then separated on a 10% acrylamide, 3.3% cross-linkage SDS-PAGE gel. To avoid degradation of the fluorescent β-lactam antibiotics by β-lactamases, samples were incubated at 37°C with clavulanic acid at a final concentration of 10 μg/ml or EDTA at a final concentration of 10 mM for 30 min before labeling, where appropriate. Competition experiments were carried out by preincubation of the samples with ampicillin (100 μg/ml) for 30 min at 37°C, before adding the fluorescent antibiotic. The samples were then further incubated for 30 min at 37°C. PBPs were visualized directly on the polyacryloamide gel by fluorescence using a Typhoon 9410 imager (Amersham Biosciences) with excitation wavelengths of 588, 633 or 457 nm and emission filters 520BP40, 670BP30 or 555BP20 for Boc-FL, Boc-650 and Amp-430, respectively. […]

The test system of assay [4] is purified recombinant Lmo2812. Briefly: DD-carboxypeptidase activity assay with synthetic tripeptide. It counts as biochemical, Listeria monocytogenes. The settings on record: substrate up to 12.5 mM, 40 μg of purified protein. As to the method:
The maximum activity was 0.75 pmoles/μg min, indicating low DD-carboxypeptidase activity under these assay conditions.
A modification of the method of Frere et al. was used for DD-carboxypeptidase activity measurement. A reaction mixture comprised of 15 μl of Nα,Nε-Diacetyl-Lys-D-Ala-D-Ala (25 mM), 3 μl of buffer (300 mM Tris-HCl pH 7.5) and 12 μl of purified recombinant Lmo2812 was prepared, incubated at 37°C and samples were taken every 10 min for 1 h. To these samples, 5 μl of 10 mg/ml (in methanol) o-Dianisidine (SIGMA) and 70 μl of enzyme/coenzyme mix (flavinadenine dinucleotide (FAD), Peroxidase and D-Amino acid Oxidase) were added. These mixtures were incubated at 37°C for 5 min, then 400 μl of methanol-water (v/v) was added and incubation continued at 37°C for another 2 min. The absorbance of each reaction was immediately read at 460 nm. A number of controls were performed: reactions containing only recombinant Lmo2812 fractions, reactions lacking recombinant Lmo2812 to establish the level of natural degradation of the tripeptide for at each sampling point, and standard samples containing known amounts of D-alanine.

Where [5] appears, read: KD2812 mutant, CAMHB with 5% lysed horse blood, 18-20 h at 37°C.
Setting [6] is: EGD wild-type, CAMHB with 5% lysed horse blood, 18-20 h at 37°C.
Where [7] appears, read: AD07 double mutant, CAMHB with 5% lysed horse blood, 18-20 h at 37°C.
Where [8] appears, read: Listeria monocytogenes, EGD wild-type, CAMHB with 5% lysed horse blood, 18-20 h at 37°C, read-out: MIC.

In brackets after ≈: the same amount, converted by molar mass. Read-outs that look alike come from different tables or passages of the source.

These results are taken from PMC2949700, “Identification of the full set of Listeria monocytogenes penicillin-binding proteins and characterization of PBPD2 (Lmo2812)” (BMC Microbiology, 2010).

Sequence of purified recombinant Lmo2812 (PBPD2) (Q8Y3M3 entry or part of it): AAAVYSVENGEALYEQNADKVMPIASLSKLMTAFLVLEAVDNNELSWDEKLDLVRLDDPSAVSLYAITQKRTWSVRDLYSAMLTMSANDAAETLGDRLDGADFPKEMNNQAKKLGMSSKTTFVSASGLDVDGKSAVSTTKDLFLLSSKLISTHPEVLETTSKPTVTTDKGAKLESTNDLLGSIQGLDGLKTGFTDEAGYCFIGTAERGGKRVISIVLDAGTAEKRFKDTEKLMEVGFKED

Turning to NAcGlc-NAcMur-pentapeptide [M5], the “M4 (%)” value turned out to be 16% in the assay with recombinant Lmo2812 (Lmo2812, M5, NaPi, pH 7.0); 48% in the assay with recombinant Lmo2812 (Lmo2812, M5, Tris-Mg, pH 7.0); 3% in the assay on recombinant Lmo2812 (Lmo2812, M5, pH 4.5). In addition, the “M5 (%)” value turned out to be 84% in the assay on recombinant Lmo2812 (Lmo2812, M5, NaPi, pH 7.0); 52% in the assay with recombinant Lmo2812 (Lmo2812, M5, Tris-Mg, pH 7.0); 97% with recombinant Lmo2812 (Lmo2812, M5, pH 4.5).
As for penicillin, the MIC in assay [1] (setting [5]) amounted to 0.16 µg/mL; with L. monocytogenes EGD (setting [6]), 0.16 µg/mL; in assay [2] (setting [7]), 0.08 µg/mL.
For `CO[C@@]1(NC(=O)Cc2cccs2)C(=O)N2C(C(=O)O)=C(COC(N)=O)CS[C@@H]21` [cefoxitin], the minimum inhibitory concentration (MIC) (in assay [1] (Listeria monocytogenes); with L. monocytogenes EGD (Listeria monocytogenes); in assay [2] (Listeria monocytogenes)) was 32 µg/mL (≈ 74.9 µM) throughout.
Consider Bocillin-650 [Boc-650], for which, in assay [3], the Kd is 2.8 µM.
As to Ampicillin-Alexa430 [Amp-430], the Kd in assay [3] was determined as 18.5 µM.
As for `Cc1onc(-c2ccccc2)c1C(=O)N[C@@H]1C(=O)N2[C@@H]1SC(C)(C)[C@@H]2C(=O)O` [oxacillin], the MIC with L. monocytogenes EGD (setting [8]) was 2.5 µg/mL (≈ 6.23 µM); in assay [2] (Listeria monocytogenes), 1.25 µg/mL (≈ 3.11 µM).
With `CC(=O)OCC1=C(C(=O)O)N2C(=O)[C@@H](NC(=O)Cc3cccs3)[C@H]2SC1` [cefalotin], the MIC in the assay on L. monocytogenes EGD (setting [8]) was found to be 2 µg/mL (≈ 5.04 µM).
Nα,Nε-Diacetyl-Lys-D-Ala-D-Ala: the “maximum DD-carboxypeptidase activity” value in assay [4] was 0.75 pmol/µg/min.
Consider `CCN1CCN(C(=O)N[C@@H](C(=O)N[C@@H]2C(=O)N3[C@@H]2SC(C)(C)[C@@H]3C(=O)O)c2ccccc2)C(=O)C1=O` [piperacillin], for which the minimum inhibitory concentration (MIC) (in assay [1] (Listeria monocytogenes); with L. monocytogenes EGD (Listeria monocytogenes); in assay [2] (Listeria monocytogenes)) was 1.25 µg/mL (≈ 2.42 µM) throughout.
As for “NAcGlc-NAcMur-tetrapeptide-NAcGlc-NAcMur-pentapeptide [D45]”, the “hydrolysis by purified Lmo2812” value with recombinant Lmo2812 (up to 100 μg of protein, up to 18 h) is “no such enzymatic activity was detected”.
On to `CC(C)(O/N=C(\C(=O)N[C@@H]1C(=O)N2C(C(=O)[O-])=C(C[n+]3ccccc3)CS[C@H]12)c1csc(N)n1)C(=O)O` [ceftazidime], for which the minimal inhibitory concentration (MIC) (in assay [1] (Listeria monocytogenes); in the assay on L. monocytogenes EGD (Listeria monocytogenes); in assay [2] (Listeria monocytogenes)) was 256 µg/mL (≈ 468 µM) in each case.
As to `CO/N=C(\C(=O)N[C@@H]1C(=O)N2C(C(=O)O)=C(COC(C)=O)CS[C@H]12)c1csc(N)n1` [cefotaxim], the MIC (in assay [1] (setting [5]); in the assay with L. monocytogenes EGD (setting [6]); in assay [2] (setting [7])) was 6 µg/mL (≈ 13.2 µM) each time.

Usually MIC stands for the least concentration at which growth counts as inhibited.
